# Experimental data published in patent US9182385B2, “Methods for diagnosis, prognosis and methods of treatment” (NODALITY, INC., priority 2007, dated 2015).
# Assays:
# Ramos cells = test: Phospho-specific multiparametric flow cytometry of BCR signaling in Ramos cells; type: cell-based; settings: FIG. 1, fluorescence above autofluorescence and background
# Method: (§1) Ramos cells were maintained and cultured using methods known in the art. Cells from CLL patients were obtained using methods known in the art.
# (§2) The cell suspension was added drop-wise into media. […] Cells were incubated at 37° C. for 2 hours. […] Cells were aliquoted into wells.
# (§3) Cells were washed twice. […] Cocktail • (i) CD3 pac blue=160 μl • (ii) CD4 APC=80 μl • (iii) CD8 PE Cy7=80 μl • (iv) CD5 PE Cy5=400 μl • (v) CD20 PerCP Cy5.5=800 μl • (vi) p-Erk=800 μl • (vii) p-BLNK=800 μl • (viii) p-Syk/ZAP70=800 μl • b. […] Each well received 100 μl of this cocktail mix.
# CLL cells = test: Phospho-specific multiparametric flow cytometry of BCR signaling in CLL patient samples; type: cell-based, human
# Method: as §1, §2, §3
# Cells were prepared and stained as described above.
# [1] = system: blood B cells from healthy donors
# Method: BCR cross-linking and preparation for staining: Cells were thawed at 37° C. in a water bath until partially thawed (˜50%). Cells were thawed into 5% FBS/RPMI at room temperature. The cell suspension was added drop-wise into media. Cells were centrifuged at 900 RPM for 10 minutes with no brake. The supernatants were decanted and pellets resuspended in 25 milliliters (ml) of media. Cells were re-centrifuged at 900 RPM for 10 minutes, decanted again and resuspended in 5 ml of 1% FBS/RPMI. Cells were counted with a hemocytometer using trypan blue staining. The concentration of the cells was adjusted as necessary to reduce crowding. Cells were incubated at 37° C. for 2 hours. The final cell concentration, including additives and reagents (e.g. stimulant, Fab fragment, H2O2, aqua, etc.) was 1.6 million/ml. Cells were aliquoted into wells. […]
# Analysis by Flow Cytometry: Between 10,000 and 100,000 un-gated events were collected for each sample on the BD LSR II flow cytometry machine. The fluorescent anti-bodies directed to extra-cellular markers (i.e. CD3, CD4, CD8, CD5 and CD20) were used to mark the cells and a hierarchical gating strategy was used to identify the B-Cells and mature B-Cell population among the recorded events as described below: • a. […] All the recorded events were also marked by the following intra-cellular markers p-Erk, p-Syk/Zap70, and p-BLNK. […]
# [2] = CD20+/CD5+ cell population of CLL samples, kinetics
SMILES,activation of p-Erk and p-Syk/pZap70 (Ramos cells),"activation of p-Erk across patients (CLL cells; CLL patient samples, regardless of ZAP70 expression (summary))","p-Erk and p-Syk phosphorylation (CLL cells; CLL samples with low and high frequency of ZAP70, FIG. 5)","Erk and Syk phosphorylation (CLL cells; other CLL samples, FIG. 9)","activation of Erk (CLL cells; pheresed CLL samples, FIG. 3)",PLCγ2 phosphorylation (CLL cells; [2]),phosphorylation of rpS6 (CLL cells; [2]),"levels of phosphorylated p72SYK/p70ZAP, ERK1/2, BLNK, and PLCγ2 (CLL cells; CLL cells of some patients, independent of surface F(ab)2anti-μ ligation)","activation of Erk and Syk (CLL cells; CLL samples, inhibition of phosphatases, FIG. 6)","tonic BCR signaling revealed by inhibition of phosphatases (CLL cells; other CLL samples, FIG. 10)","responsiveness (phosphorylated p72SYK/p70ZAP, ERK1/2, BLNK, PLCγ2) (CLL cells; other CLL-B cells, even in the presence of F(ab)2anti-μ)","phosphorylation of p72SYK/p70ZAP, ERK1/2, BLNK, PLCγ2 ([1]; blood B cells from healthy donors)","activation of signaling post BCR ([1]; normal B cells, H2O2 by itself, FIG. 7)"
CCCCCCCCCCCCCC(=O)O[C@@H]1[C@@H](C)[C@@]2(O)[C@@H](C=C(CO)C[C@]3(O)C(=O)C(C)=C[C@@H]23)[C@@H]2C(C)(C)[C@]12OC(C)=O [PMA],activates,comparable in all patients,modest,modest,activates,,,,,,,,
"OO [H2O2, hydrogen peroxide]",,,,,,increased,attenuates,induced high-levels,activates,does not reveal strong tonic BCR signaling,significantly less responsive,failed to elicit a substantial increase,incapable of activating post BCR by itself
